Like-named read-outs stand apart in the source and are kept apart here.
How the values were obtained:
IGFBP-5 = molecular target: T1, IGFBP-5 (Homo sapiens, UniProt P24593); assay: Detection of ligand binding by 15N-HSQC NMR titration
T1 construct: His-tag (N); T7-tag (pET-28a construct only) (N); made in house; host or cells: E. coli BL21
Procedure: Ligand binding was detected by acquiring ^15N—HSQC spectra. All NMR spectra were acquired at 300 K on Bruker DRX600 spectrometer. The samples for NMR spectroscopy were concentrated and dialyzed against PBS buffer. Typically, the sample concentration was varied from 0.3 to 1.0 mM. Before measuring, the sample was centrifuged in order to sediment aggregates and other macroscopic particles. 450 μl of the protein solution were mixed with 50 μl of D2O (5-10%) and transferred to an NMR sample tube. The stock solutions of compounds were 100 mM either in water or in perdeuterated DMSO. pH was maintained constant during the whole titration. The binding was monitored by observation of the changes in the ^15N—HSQC spectrum. Dissociation constants were obtained by monitoring the chemical shift changes of the backbone amide of several amino acid residues (Table 9) as a function of ligand concentration. Data were fit using a single binding site model.

[1] = molecular target: T2, complex of IGFBP-5 and IGF-I (Homo sapiens, UniProt P24593); assay: Release of IGF-I from the complex with IGFBP-5 measured by 125I-IGF-I binding to IGF-R expressing NIH 3T3 cells; assay type: cell-based; settings: 10 or 100 nM IGFBP-5, 5 pM 125I-IGF-I, FIG. 7
Procedure: Kalus, W., et al., in EMBO J. 17 (1998) 6558-6572, describe the inhibition of the binding of IGF-I to IGF-R expressing NIH 3T3 cells by formation of an inhibitory complex. This assay was used to investigate the release of IGF-I from the inhibitory complex with IGFBP-5.
NIH 3T3 cells stably expressing human IGF-R were grown in culture dishes in Dulbecco's modified Eagle's medium (DMEM) containing 10% fetal calf serum. Cells were washed carefully with PBS and incubated with 5 ml of 50 mM EDTA in PBS for 45 min. Cells were removed from the plate, washed once with PBS and once with binding buffer (100 mM HEPES pH 7.6, 120 mM NaCl, 5 mM KCl, 1.2 mM MgSO 4, 1 mM EDTA, 10 mM glucose, 15 mM sodium acetate, 1% dialysed BSA), and resuspended in binding buffer to determine the cell number. 5 pM ^125 I-IGF-I (Amersham) was preincubated with either 10 or 100 nM IGFBP-5 alone or in combination with 33 μM of the different compounds 1,2,3,4B and 4C at 4° C. for 1 h. Then 400 μl of the cell suspension corresponding to 2×10^5 cells were added to give a total volume of 500 μl. After 12 h incubation at 4° C., cells were washed with binding buffer (at 4° C.). Free hormone was removed by repeated centrifugation and resuspension in the binding buffer. The 125 I radioactivity bound to the cells was determined in a gamma-counter.

[2] = molecular target: T2, complex of IGFBP-5 and IGF-I; assay: Release of IGF-I from the complex with IGFBP-5 measured by IGF-R activation (autophosphorylation) in NIH 3T3 cells; assay type: cell-based; settings: FIG. 8
Text: Kalus, W., et al., in EMBO J. 17 (1998) 6558-6572, describe the inhibition of the activation and autophosphorylation of the IGF-R by IGF-I in the presence of IGFBP-5. This assay was used to further investigate the release of IGF-I from the inhibitory complex with IGFBP-5 by compound 3. Binding of compound 3 to IGFBP-5 and dissociation of the complex of the binding protein with IGF-I should result in an activation and autophosphorylation of the IGF-R in the presence of IGFBP-5.
Confluent monolayers of the NIH 3T3 cells stably expressing human IGF-R in 3.5 cm dishes were starved in DMEM containing 0.5% dialysed fetal calf serum. After 48 h, cells were incubated without any hormone or with 10 nM IGF-I. Samples were preincubated with 100 nM IGFBP-5 and increasing concentrations of compound 3 from 0 to 50 μM at room temperature for 1 h. After a 10 min stimulation at 37° C., the medium was removed and cells were lysed with 250 μl of lysing buffer (20 mM HEPES pH 7.5, 150 mM NaCl, 10% glycerol, 1% NP-40, 1.5 mM MgCl 2, 1 mM EGTA), 10 mM sodium orthovanadate, and protease inhibitor cocktail Complete (Roche Molecular Biochemicals) for 10 min on ice. […] The protein concentration of the supernatant was determined using the BCA kit from Pierce according to the manufacturer's instructions. […]

IGF-I = IGF-I (Homo sapiens, UniProt P05019); settings: domain of IGFBP-5 residues 40-92; cited from earlier work
IGF-II = IGF-II (Homo sapiens, UniProt P01344); settings: domain of IGFBP-5 residues 40-92; cited from earlier work
tumor growth = settings: 1 mg/dose daily in mice; cited from earlier work
MDA-MB-435A cells = settings: in vitro; cited from earlier work
MDA-MB-231 cells = settings: in vivo in mice; cited from earlier work
MCF-7 cells = settings: in vitro; cited from earlier work
[3] = changes in chemical shift for the residue L81, read-out: KD

T2 sequence (P24593 21-272, one chain of several): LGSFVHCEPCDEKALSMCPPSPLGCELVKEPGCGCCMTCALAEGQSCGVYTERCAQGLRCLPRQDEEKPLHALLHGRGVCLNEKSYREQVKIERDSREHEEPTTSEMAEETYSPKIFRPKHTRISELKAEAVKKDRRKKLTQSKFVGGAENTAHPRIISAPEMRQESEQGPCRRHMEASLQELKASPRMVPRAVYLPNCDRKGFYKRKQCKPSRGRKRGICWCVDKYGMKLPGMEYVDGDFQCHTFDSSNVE
Chain of IGF-I (P05019 49-118 limits assumed): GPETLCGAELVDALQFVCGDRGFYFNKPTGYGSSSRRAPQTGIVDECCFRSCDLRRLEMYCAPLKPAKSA
Chain of IGF-II (P01344 25-91 limits assumed): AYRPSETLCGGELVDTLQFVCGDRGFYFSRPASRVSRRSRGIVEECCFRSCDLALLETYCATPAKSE

**Q.** Which results are given for `O=C(N[C@@H](Cc1ccc(OP(=O)(O)O)cc1)C(=O)O)OCC1c2ccccc2-c2ccccc21` [Compound 2, Nα-FMOC-O-phospho-L-tyrosine]?
**A.** Kd (IGFBP-5; average over residues, read-out: ligand in DMSO KD): 1710 ± 370 µM; Kd (IGFBP-5; average over residues, read-out: ligand in PBS KD): 2210 ± 400 µM; Kd (IGFBP-5; [3]): 2780 ± 300 µM; Kd (IGFBP-5; residue K91, read-out: ligand in DMSO KD): 2420 ± 180 µM; Kd (IGFBP-5; residue K91, read-out: ligand in PBS KD): 2120 ± 1030 µM; Kd (IGFBP-5; residue L73, read-out: ligand in DMSO KD): 1310 ± 170 µM; Kd (IGFBP-5; residue L73, read-out: ligand in PBS KD): 2930 ± 1410 µM; Kd (IGFBP-5; residue R87, read-out: ligand in DMSO KD): 1640 ± 120 µM; Kd (IGFBP-5; residue R87, read-out: ligand in PBS KD): 2360 ± 1000 µM; Kd (IGFBP-5; residue S85, read-out: ligand in DMSO KD): 1380 ± 100 µM; Kd (IGFBP-5; residue S85, read-out: ligand in PBS KD): 2330 ± 940 µM; Kd (IGFBP-5; residue Y50, read-out: ligand in DMSO KD): 1580 ± 90 µM; Kd (IGFBP-5; residue Y50, read-out: ligand in PBS KD): 1820 ± 950 µM; Kd (IGFBP-5; residue Y86, read-out: ligand in DMSO KD): 1900 ± 170 µM; Kd (IGFBP-5; residue Y86, read-out: ligand in PBS KD): 1720 ± 990 µM

**Q.** Which Kd (IGFBP-5; [3]) does the source give for `CC(C)(C)Oc1ccc(C[C@H](NC(=O)OCC2c3ccccc3-c3ccccc32)C(=O)O)cc1` [Compound 2A, Nα-FMOC-O-tert-butyl-L-tyrosine] here?
**A.** The Kd was 718 ± 79 µM.

**Q.** For `O=C(N[C@@H](Cc1ccccc1)C(=O)O)OCC1c2ccccc2-c2ccccc21` [Compound 2B, Nα-FMOC-L-phenylalanine], which Kd (IGFBP-5; [3]) is on record?
**A.** The Kd was 1080 ± 507 µM.

**Q.** For `O=C(Nc1ccc(S(=O)(=O)F)cc1)c1cc(N=Nc2cc(Cl)ccc2Cl)c2ccccc2c1O` [Compound 3, 4-(2,5-Dichlorophenylazo)-4′fluorosulfonyl-1-hydroxy-2-naphthanilide], which “release of IGF-I from the complex and binding of IGF-I to IGF-R expressing cells” value ([1]; 33 μM compound) is on record?
**A.** Its value is “release of IGF-I from the complex”.

**Q.** And the “autophosphorylation of IGF-R in presence of inactive complex of IGFBP-5 and IGF-I” value ([2]; 50 uM compound 3, 100 nM IGFBP-5, 10 nM IGF-I)?
**A.** Its value is “increased autophosphorylation of the receptor”.

**Q.** For “IGFBP-5: human insulin-like growth factor binding protein 5, SwissProt P 24593”, which “binding of labeled IGF-I to NIH 3T3 cells” value [1] is on record?
**A.** Its value is “inhibited”.

**Q.** And the “autophosphorylation of IGF-R by IGF-I” value ([2]; 100 nM IGFBP-5, 10 nM IGF-I)?
**A.** Its value is “inhibited”.

**Q.** For “mini-IGFBP-5: domain of IGFBP-5 between residues 40-92 (GSALAEGQSCGVYTERCAQGLRCLPRQDEEKPLHALLHGRGVCLNEKSYREQVKI)”, which Kd (IGF-I) is on record?
**A.** The Kd was 0.037 µM.

**Q.** And the Kd (IGF-II)?
**A.** The Kd was 0.006 µM.

B1: pegylated IGFBP-1: IGFBP-1 covalently coupled to polyethylene glycol (van den Berg) (conjugate, UniProt P08833 26-259, looked up)
Insulin-like growth …: APWQCAPCSAEKLALCPPVSASCSEVTRSAGCGCCPMCALPLGAACGVATARCARGLSCRALPGEQQPLHALTRGQGACVQESDASAPHAAEAGSPESPESTEITEEELLDNFHLMAPSEEDHSILWDAISTYDGSKALHVTNIKKWKEPCRIELYRVVESLAKAQETSGEEISKFYLPNCNKNGFYHSRQCETSMDGEAGLCWCVYPWNGKRIPGSPEIRGDPNCQIYFNVQN
modifications: PEG
**Q.** Which “inhibition of tumor growth (response)” value (tumor growth) does the source give for B1 here?
**A.** Its value is “only partial response”.

B2: IGFBP-1: human insulin-like growth factor binding protein 1, SwissProt P 08833 (protein, UniProt P08833 26-259, looked up)
Insulin-like growth …: B1 Insulin-like growth …
**Q.** Which “growth of MDA-MB-435A cells” value (MDA-MB-435A cells) does the source give for B2 here?
**A.** The value was “inhibits the growth”.

**Q.** What about the “growth of tumors formed MDA-MB-231 cells” value (MDA-MB-231 cells) of the same molecule?
**A.** The value was “inhibits the growth”.

**Q.** What about the “growth of MCF-7 cells” value (MCF-7 cells) of the same molecule?
**A.** Its value is “inhibits the growth”.

— patent publication US20050033035A1, “Mutants of igf binding proteins and methods of production of antagonists thereof” (priority 2001, published 2005)
